The IC50 is the concentration that inhibits the measured activity by half. Higher therefore signals weaker potency in that assay.

The source of these data is paper PMC12557437, “Research towards selective inhibition of the CLK3 kinase” (Beilstein Journal of Organic Chemistry, 2025).

Each structure is given as a SMILES string.

What all share (assay type): biochemical
Test [1] concerns the target Hs_CDK5/p25 (Homo sapiens, UniProt Q00535). The test is described as follows: primary screening, short panel of mammalian kinases. The following applies: ATP 10 µM, means, n = 2, read-out: Residual kinase activity Hs_CDK5/p25; for remaining activity at 1 µM: compound 1 μM; for remaining activity at 10 µM: compound 10 μM. An excerpt: (§1) Our molecules have been submitted first to a primary screening against a panel of eight disease-related kinases: five members of the CMGC (for CDK, MAPK, GSK3, and CLK) group (CDK5/p25, CDK9/CyclinT, GSK3β, CLK1 and DYRK1A), one CAMK (calmodulin/calcium regulated kinase PIM1), one CK1 (the casein kinase CK1ε), and haspin as a […] kinase.
(§2) Figure 4 Primary evaluation of the inhibition of the new quinazolines against a short panel of mammalian kinases. Residual kinase activities are expressed in % of maximal activity, i.e., measured in the absence of inhibitor but with an equivalent dose of DMSO (solvent of the tested compounds). ATP concentration used in the kinase assays was 10 µM (values are means, n = 2). Kinases are from human origin (Homo sapiens) except CLK1 (from Mus musculus) and DYRK1A (from Rattus norvegicus). […]

The target in test [2] is Hs_CDK9/CyclinT (Homo sapiens, UniProt P50750). Described as above. The conditions noted are these: ATP 10 µM, means, n = 2, read-out: Residual kinase activity Hs_CDK9/CyclinT; for remaining activity at 1 µM: compound 1 μM; for remaining activity at 10 µM: compound 10 μM.
Text: as §1, §2

Test [3] deals with Hs_CK1ε (Homo sapiens, UniProt P49674). The test is described as above. The conditions noted are these: ATP 10 µM, means, n = 2, read-out: Residual kinase activity Hs_CK1ε; for remaining activity at 1 µM: compound 1 μM; for remaining activity at 10 µM: compound 10 μM.
Text: as §1, §2

Test [4] concerns the target Hs_GSK3β (Homo sapiens, UniProt P49841). The test is described as above. The conditions noted are these: ATP 10 µM, means, n = 2, read-out: Residual kinase activity Hs_GSK3β; for remaining activity at 1 µM: compound 1 μM; for remaining activity at 10 µM: compound 10 μM.
Text: as §1, §2

Test [5] addresses T1, Hs_HASPIN (Homo sapiens, UniProt Q8TF76).
T1 sequence (Q8TF76 1-798): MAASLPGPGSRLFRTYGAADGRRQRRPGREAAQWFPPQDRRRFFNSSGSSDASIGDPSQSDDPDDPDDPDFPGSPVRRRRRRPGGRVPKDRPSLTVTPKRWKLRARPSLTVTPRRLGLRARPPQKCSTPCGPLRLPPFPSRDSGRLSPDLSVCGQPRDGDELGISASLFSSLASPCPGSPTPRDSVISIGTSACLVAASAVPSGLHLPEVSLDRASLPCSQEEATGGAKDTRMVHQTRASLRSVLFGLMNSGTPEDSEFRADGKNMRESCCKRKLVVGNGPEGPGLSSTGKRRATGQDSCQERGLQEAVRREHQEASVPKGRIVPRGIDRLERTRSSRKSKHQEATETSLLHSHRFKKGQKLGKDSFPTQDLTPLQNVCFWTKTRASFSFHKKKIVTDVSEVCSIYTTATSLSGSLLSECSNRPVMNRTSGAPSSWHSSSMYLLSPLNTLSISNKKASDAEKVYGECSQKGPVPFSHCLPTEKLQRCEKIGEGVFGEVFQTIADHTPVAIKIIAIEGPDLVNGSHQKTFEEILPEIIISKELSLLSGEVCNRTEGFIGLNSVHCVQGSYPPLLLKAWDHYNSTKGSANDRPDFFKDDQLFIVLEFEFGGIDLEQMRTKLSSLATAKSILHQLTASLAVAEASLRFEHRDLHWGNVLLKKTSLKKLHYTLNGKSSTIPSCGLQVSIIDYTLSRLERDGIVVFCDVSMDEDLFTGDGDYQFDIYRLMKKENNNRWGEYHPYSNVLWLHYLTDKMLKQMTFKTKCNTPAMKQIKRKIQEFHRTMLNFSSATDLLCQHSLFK
The description is as above. The conditions noted are these: ATP 10 µM, means, n = 2, read-out: Residual kinase activity Hs_HASPIN; for remaining activity at 1 µM: compound 1 μM; for remaining activity at 10 µM: compound 10 μM.
Text: as §1, §2

Test [6] deals with Hs_PIM1 (Homo sapiens, UniProt P11309). Described as above. The following applies: ATP 10 µM, means, n = 2, read-out: Residual kinase activity Hs_PIM1; for remaining activity at 1 µM: compound 1 μM; for remaining activity at 10 µM: compound 10 μM.
Text: as §1, §2

Test [7] addresses T2, Mm_CLK1 (Mus musculus, UniProt P22518). The description is as above. The conditions noted are these: for remaining activity at 1 µM: compound 1 μM; for remaining activity at 1 µM / remaining activity at 10 µM: ATP 10 µM, means, n = 2, read-out: Residual kinase activity Mm_CLK1; for remaining activity at 10 µM: compound 10 μM; for activity against CLK1 in primary screening: 1 and 10 µM.
Text: as §1, §2

In test [8] the target is Rn_DYRK1A (Rattus norvegicus, UniProt Q63470). The description is as above. The conditions noted are these: ATP 10 µM, means, n = 2, read-out: Residual kinase activity Rn_DYRK1A; for remaining activity at 1 µM: compound 1 μM; for remaining activity at 10 µM: compound 10 μM.
Text: as §1, §2

Test [9] deals with T2, Mm_CLK1. Description: radiometric γ33P-ATP kinase assay (Eurofins). The conditions noted are these: for IC50: 15 µM ATP, dose-response, points in duplicate; for Mm_CLK3/Mm_CLK1: ratio of IC50 values. How it is done:
(§3) The results are reported in Table 2 and in Supporting Information File 1.
(§4) 2- Kinase inhibition studies
(§5) Kinase enzymatic activities were assayed using both luminescent ADP detection assay
(§6) (ADP-GloTM assay kit, Promega, Madison, WI) or radiometric kinase assay. These
(§7) assays were performed using the protocols described in our previous publication. […]
(§8) 1.Brahmaiah, D.; Kanaka Durga Bhavani, A.; Aparna, P.; Sampath Kumar, N.; Solhi,
(§9) H.; Le Guevel, R.; Baratte, B.; Ruchaud, S.; Bach, S.; Singh Jadav, S.; Raji Reddy, C.;
(§10) Roisnel, T.; Mosset, P.; Levoin, N.; Grée, R. Bioorg.
(§11) R.; Baratte, B.; Robert, T.; Ruchaud, S.; Bach, S.; Jadav, S. S.; Reddy, C. […]

The target of test [10] is Mm_CLK2 (Mus musculus, UniProt O35491). The test is described as follows: radiometric γ33P-ATP kinase assay (Eurofins). The following applies: for IC50: 15 µM ATP, dose-response, points in duplicate; for Mm_CLK3/Mm_CLK2: ratio of IC50 values. The protocol: as §3, §4, §5, §6, §7, §8, §9, §10, §11
The target in test [11] is Mm_CLK4 (Mus musculus, UniProt O35493). Description: radiometric γ33P-ATP kinase assay (Eurofins). The following applies: for IC50: 15 µM ATP, dose-response, points in duplicate; for Mm_CLK3/Mm_CLK4: ratio of IC50 values. How it is done:
as §3, §4, §5, §6, §7, §8, §9, §10, §11

The target in test [12] is Mm_CLK3 (Mus musculus, UniProt O35492). Description: radiometric γ33P-ATP kinase assay (Eurofins). The conditions noted are these: 15 µM ATP; dose-response, points in duplicate. The protocol:
as §3, §4, §5, §6, §7, §8, §9, §10
R.; Baratte, B.; Robert, T.; Ruchaud, S.; Bach, S.; Jadav, S. S.; Reddy, C. R.; Mosset,
P.; Gouault, N.; Levoin, N.; Grée, R. Molecules 2022, 27, 6149. […]

Hs_GSK3β, sequence (P49841 whole entry): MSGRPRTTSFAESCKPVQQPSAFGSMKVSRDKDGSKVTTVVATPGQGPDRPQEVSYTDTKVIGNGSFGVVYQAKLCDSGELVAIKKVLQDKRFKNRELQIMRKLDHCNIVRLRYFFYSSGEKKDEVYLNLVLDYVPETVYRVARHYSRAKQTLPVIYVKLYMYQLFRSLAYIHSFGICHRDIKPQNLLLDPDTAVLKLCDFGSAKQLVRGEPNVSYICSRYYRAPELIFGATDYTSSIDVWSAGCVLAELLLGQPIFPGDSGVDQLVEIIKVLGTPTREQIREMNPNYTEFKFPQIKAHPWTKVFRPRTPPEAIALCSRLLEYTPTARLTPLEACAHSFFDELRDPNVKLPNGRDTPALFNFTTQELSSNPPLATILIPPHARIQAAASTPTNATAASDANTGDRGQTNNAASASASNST
Hs_PIM1, sequence (P11309 whole entry): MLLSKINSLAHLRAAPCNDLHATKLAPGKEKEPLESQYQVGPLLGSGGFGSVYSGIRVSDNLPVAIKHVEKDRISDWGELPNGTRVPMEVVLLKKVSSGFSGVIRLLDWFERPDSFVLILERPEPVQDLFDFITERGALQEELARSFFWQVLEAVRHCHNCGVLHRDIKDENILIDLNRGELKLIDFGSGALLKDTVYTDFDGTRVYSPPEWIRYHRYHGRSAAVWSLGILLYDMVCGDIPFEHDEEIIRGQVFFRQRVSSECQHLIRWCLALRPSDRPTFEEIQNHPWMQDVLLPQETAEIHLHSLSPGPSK
T2 sequence (P22518 whole entry): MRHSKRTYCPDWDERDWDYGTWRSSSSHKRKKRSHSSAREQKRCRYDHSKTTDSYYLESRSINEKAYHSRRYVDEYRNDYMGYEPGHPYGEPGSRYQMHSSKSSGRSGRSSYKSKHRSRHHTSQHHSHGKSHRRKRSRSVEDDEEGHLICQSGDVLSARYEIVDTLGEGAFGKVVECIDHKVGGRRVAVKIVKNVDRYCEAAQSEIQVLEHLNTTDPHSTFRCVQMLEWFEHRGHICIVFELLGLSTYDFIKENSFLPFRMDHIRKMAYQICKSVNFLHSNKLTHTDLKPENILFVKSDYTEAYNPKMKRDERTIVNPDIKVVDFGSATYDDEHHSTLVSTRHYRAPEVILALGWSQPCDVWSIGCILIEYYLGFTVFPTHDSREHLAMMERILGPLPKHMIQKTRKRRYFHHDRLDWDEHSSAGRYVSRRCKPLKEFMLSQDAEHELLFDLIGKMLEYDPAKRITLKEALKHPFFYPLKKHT
Hs_CDK5/p25, sequence (Q00535 whole entry): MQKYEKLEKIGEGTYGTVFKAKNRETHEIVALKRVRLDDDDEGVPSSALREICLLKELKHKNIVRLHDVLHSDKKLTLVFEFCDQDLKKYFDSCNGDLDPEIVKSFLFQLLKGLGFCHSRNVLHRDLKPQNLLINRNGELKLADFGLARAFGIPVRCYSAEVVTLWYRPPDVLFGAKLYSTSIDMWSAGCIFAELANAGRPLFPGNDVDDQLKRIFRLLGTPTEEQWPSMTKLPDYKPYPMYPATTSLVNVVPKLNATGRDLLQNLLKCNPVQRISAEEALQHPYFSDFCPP
Hs_CDK5/p25, sequence (Q15078 99-307 partner limits assumed): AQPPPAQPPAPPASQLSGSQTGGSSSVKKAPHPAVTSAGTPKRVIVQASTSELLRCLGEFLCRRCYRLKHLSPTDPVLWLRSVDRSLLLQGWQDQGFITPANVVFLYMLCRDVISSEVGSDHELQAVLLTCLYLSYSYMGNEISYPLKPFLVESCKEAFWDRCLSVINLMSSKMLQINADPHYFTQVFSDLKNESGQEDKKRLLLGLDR
Mm_CLK2, sequence (O35491 whole entry): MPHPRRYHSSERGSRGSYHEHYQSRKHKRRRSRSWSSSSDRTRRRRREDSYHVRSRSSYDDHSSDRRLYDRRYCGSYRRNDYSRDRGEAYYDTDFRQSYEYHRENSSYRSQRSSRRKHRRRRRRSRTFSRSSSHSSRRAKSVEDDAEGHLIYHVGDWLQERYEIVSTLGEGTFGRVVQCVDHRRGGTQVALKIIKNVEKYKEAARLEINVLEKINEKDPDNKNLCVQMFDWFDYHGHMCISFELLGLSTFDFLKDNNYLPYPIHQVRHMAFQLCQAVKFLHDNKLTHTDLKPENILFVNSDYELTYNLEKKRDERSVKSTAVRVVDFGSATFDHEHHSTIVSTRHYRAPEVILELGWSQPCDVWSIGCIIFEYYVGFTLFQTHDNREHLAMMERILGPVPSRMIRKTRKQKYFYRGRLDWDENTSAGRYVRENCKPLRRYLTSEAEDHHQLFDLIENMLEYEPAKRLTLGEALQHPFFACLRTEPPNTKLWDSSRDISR
Hs_CK1ε, sequence (P49674 whole entry): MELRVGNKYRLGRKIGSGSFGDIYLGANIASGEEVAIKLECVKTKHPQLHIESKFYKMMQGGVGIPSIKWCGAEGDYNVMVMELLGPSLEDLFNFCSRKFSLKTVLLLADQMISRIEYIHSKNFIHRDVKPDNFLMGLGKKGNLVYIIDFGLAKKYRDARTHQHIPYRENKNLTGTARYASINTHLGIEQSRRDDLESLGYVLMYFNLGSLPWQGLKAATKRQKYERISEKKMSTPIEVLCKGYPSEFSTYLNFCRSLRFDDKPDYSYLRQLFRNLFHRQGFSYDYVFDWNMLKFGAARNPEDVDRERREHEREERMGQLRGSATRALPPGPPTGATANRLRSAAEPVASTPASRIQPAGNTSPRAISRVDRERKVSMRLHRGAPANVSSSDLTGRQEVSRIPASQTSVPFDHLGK
Hs_CDK9/CyclinT, sequence (P50750 whole entry): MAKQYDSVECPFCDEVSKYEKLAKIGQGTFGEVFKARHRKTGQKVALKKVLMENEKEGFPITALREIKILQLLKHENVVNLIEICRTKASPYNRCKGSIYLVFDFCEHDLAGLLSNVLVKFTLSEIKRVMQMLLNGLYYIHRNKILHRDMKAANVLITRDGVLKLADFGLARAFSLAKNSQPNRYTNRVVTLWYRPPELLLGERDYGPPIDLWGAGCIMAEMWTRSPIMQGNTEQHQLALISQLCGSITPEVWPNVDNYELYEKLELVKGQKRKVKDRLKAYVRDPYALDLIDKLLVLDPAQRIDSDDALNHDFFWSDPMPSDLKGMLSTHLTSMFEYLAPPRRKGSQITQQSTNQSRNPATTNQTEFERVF
Hs_CDK9/CyclinT, sequence (O60563 whole entry partner): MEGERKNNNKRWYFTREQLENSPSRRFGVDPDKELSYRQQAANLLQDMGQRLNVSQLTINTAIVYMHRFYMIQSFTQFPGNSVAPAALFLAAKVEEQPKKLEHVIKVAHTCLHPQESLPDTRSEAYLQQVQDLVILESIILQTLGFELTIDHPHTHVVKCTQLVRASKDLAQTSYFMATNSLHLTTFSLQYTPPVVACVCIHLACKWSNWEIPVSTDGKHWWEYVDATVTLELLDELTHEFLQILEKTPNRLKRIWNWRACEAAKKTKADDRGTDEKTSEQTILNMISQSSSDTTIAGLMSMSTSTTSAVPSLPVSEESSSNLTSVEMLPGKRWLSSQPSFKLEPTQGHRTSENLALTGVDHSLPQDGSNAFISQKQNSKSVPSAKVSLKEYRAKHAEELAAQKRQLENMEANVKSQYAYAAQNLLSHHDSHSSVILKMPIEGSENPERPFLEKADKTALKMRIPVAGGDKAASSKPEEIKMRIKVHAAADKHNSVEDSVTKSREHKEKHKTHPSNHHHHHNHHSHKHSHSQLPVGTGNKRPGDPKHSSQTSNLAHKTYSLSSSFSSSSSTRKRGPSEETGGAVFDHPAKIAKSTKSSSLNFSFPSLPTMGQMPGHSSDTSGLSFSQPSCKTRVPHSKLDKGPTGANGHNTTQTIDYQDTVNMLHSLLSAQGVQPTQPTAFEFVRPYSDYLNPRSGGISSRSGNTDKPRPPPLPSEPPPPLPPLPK
Mm_CLK4, sequence (O35493 whole entry): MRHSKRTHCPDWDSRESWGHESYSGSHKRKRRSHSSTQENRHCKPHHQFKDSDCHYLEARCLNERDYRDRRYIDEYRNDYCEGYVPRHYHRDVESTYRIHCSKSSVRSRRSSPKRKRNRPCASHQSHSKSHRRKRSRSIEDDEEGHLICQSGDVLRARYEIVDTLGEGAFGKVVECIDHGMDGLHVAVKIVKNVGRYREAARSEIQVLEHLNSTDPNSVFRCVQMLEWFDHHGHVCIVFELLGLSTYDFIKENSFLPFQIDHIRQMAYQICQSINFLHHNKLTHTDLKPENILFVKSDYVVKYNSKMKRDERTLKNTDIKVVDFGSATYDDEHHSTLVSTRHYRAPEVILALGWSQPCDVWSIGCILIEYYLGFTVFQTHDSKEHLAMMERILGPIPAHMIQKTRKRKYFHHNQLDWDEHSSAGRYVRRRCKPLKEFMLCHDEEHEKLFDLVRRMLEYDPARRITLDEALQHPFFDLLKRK
Mm_CLK3, sequence (O35492 whole entry): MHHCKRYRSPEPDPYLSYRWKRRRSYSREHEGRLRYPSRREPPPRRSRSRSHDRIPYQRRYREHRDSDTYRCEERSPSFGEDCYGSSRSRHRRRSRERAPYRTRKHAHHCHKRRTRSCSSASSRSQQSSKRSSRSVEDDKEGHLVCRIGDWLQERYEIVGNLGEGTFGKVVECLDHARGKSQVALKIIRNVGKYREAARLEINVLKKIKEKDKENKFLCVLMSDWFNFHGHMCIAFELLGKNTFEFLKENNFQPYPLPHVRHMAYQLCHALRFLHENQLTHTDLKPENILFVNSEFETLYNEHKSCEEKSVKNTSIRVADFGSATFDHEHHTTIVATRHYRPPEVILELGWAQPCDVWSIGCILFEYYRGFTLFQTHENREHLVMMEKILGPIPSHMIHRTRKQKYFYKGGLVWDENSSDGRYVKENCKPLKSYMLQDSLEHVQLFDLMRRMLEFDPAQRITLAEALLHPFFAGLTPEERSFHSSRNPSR

For `COC(=O)c1ccc(-c2cccc(Nc3ncc4cccc(OCc5cn(-c6ccc(C)cc6[N+](=O)[O-])nn5)c4n3)c2)cc1` [Compound 9a], the remaining activity at 1 µM in test [1] was 70%; in [2], 98%; in test [3] it was 78%; in test [4] it was 70%; in test [5] it was 95%; in test [6], at least 100%. Besides, the remaining activity at 1 µM in [7] is 66%; in test [8], at least 100%. In addition, the remaining activity at 10 µM in test [1] was 84%; in [2], 95%; in [3], 95%; in test [4], 53%; in test [5], at least 100%; in test [6], 90%. Further, the remaining activity at 10 µM is 58% in test [7] and at least 100% in test [8].
In the case of `COC(=O)c1cccc(-c2cc(Cl)cc(Nc3ncc4cccc(OCc5cn(-c6ccc(C)cc6[N+](=O)[O-])nn5)c4n3)c2)c1` [Compound 12b], the remaining activity at 1 µM in test [1] is 85%; in [2], 94%; in [3], at least 100%; in test [4], 97%; in test [5] it was 47%; in [6], 90%. Besides, the results for the remaining activity at 1 µM in test [7] and in [8] were 54% and at least 100%, respectively. In addition, the remaining activity at 10 µM in [1] was 92%; in test [2], 83%; in [3], at least 100%; in test [4], 62%; in test [5], 39%; in test [6], 98%. Besides, the figures for the remaining activity at 10 µM in test [7] and in test [8] were 48% and at least 100%, respectively.
Consider `Cc1ccc(-n2cc(COc3cccc4cnc(Nc5cccc(-c6cccc(C(=O)O)c6)c5)nc34)nn2)c([N+](=O)[O-])c1` [Compound 13a], for which the remaining activity at 1 µM is 62% in [1]; 83% in [2]; at least 100% in test [3]; 95% in test [4]; 79% in test [5]; 68% in [6]. For the same compound, the values for the remaining activity at 1 µM in [7] and in test [8] were 44% and 92%, respectively. The remaining activity at 10 µM in test [1] was 9%; in test [2] it was 24%; in test [3], at least 100%; in test [4], 26%; in [5], 63%; in [6], at least 100%. Further, the remaining activity at 10 µM worked out at 5% in [7] and 60% in [8]. In addition, in test [7], the “activity against CLK1 in primary screening” value is “significant activity against CLK1”. Also, the IC50 in [9] was 680 nM; in test [10], 278 nM; in test [11] it was 428 nM; in test [12], 1660 nM. The Mm_CLK3/Mm_CLK1 in test [9] was found to be 2.43. Moreover, the Mm_CLK3/Mm_CLK2 in test [10] is recorded as 5.95. The Mm_CLK3/Mm_CLK4 in [11] worked out at 3.87.
Take `COC(=O)c1ccc(-c2cc(Cl)cc(Nc3ncc4cccc(OCc5cn(-c6ccc(C)cc6[N+](=O)[O-])nn5)c4n3)c2)cc1` [Compound 9b]: the remaining activity at 1 µM in test [1] is 74%; in test [2], 96%; in [3], at least 100%; in test [4], 90%; in test [5], 65%; in [6], at least 100%. Also, the remaining activity at 1 µM in [7] is 60%; in test [8], at least 100%. In addition, the remaining activity at 10 µM in test [1] is at least 100%; in [2], 91%; in test [3], at least 100%; in test [4], 86%; in test [5] it was 43%; in test [6] it was 96%. For the same compound, the remaining activity at 10 µM in [7] is 66%; in [8], at least 100%.
Regarding `Cc1ccc(-n2cc(COc3cccc4cnc(Nc5cc(Cl)cc(-c6ccc(C(=O)O)cc6)c5)nc34)nn2)c([N+](=O)[O-])c1` [Compound 10b], the remaining activity at 1 µM was 53% in test [1]; 99% in [2]; at least 100% in test [3]; 92% in test [4]; 85% in [5]; 84% in test [6]. Also, the remaining activity at 1 µM in [7] came out at 38%; in test [8] it was 82%. Also, the remaining activity at 10 µM in test [1] was 43%; in test [2], 66%; in test [3], 92%; in test [4], 56%; in test [5] it was 92%; in test [6] it was at least 100%. Further, the remaining activity at 10 µM was determined as 8% in [7] and 94% in [8]. Further, in test [7], the “activity against CLK1 in primary screening” value was “significant activity against CLK1”. Further, the IC50 in test [9] was 213 nM; in test [10] it was 118 nM; in [11], 145 nM; in [12], 861 nM. The Mm_CLK3/Mm_CLK1 in [9] amounted to 4.04. Further, the Mm_CLK3/Mm_CLK2 in test [10] stood at 7.29. In test [11], the Mm_CLK3/Mm_CLK4 came out at 5.94.
